We go through 20 molecules from patent US10202377B2, “3-(1H-benzo[D]imidazol-2-yl)-1H-pyrazolo[3,4-C]pyridine and therapeutic uses thereof” (Samumed, LLC, priority 2014, dated 2019).

pEC50, pIC50: −log10 of the molar value.

Test [1] concerns primary human mesenchymal stem cells (hMSCs). Briefly: Chondrogenesis induction in primary human mesenchymal stem cells (nodule imaging, Rhodamine B/Nile Red). Format: cell-based. As to conditions: 6 days, dose at which the compound reached maximum chondrogenesis activity, dose range 10-2700 nM. The protocol:
The above synthesized compounds were screened using primary human mesenchymal stem cells (hMSCs) to determine their ability to induce chondrogenesis (process by which cartilage is developed).
Human Mesenchymal Stem Cell Culture: Primary human mesenchymal stem cells (hMSCs) were purchased from Lonza (Walkersville, Md.) and expanded in Mesenchymal Stem Cell Growth Media (Lonza). Cells between passage 3 and 6 were used for the experiments.
Compound Screening: Each compound was dissolved in DMSO as a 10 mM stock and used to prepare compound source plates. Serial dilution (1:3, 6-point dose-response curves from 2700 nM to 10 nM) and compound transfer was performed using the ECHO 550 (Labcyte, Sunnyvale, Calif.) into 96-well clear bottom assay plates (Greiner Bio-One) with appropriate DMSO backfill for a final DMSO concentration of 0.03%. hMSCs were plated at 20,000 cells/well in 250 μL/well Incomplete Chondrogenic Induction Medium (Lonza; DMEM, dexamethasone, ascorbate, insulin-transferrin-selenium [ITS supplement], gentamycin-amphotericin [GA-1000], sodium pyruvate, proline and L-glutamine). TGF-β3 (10 ng/mL) was used as a positive control for differentiation while negative control wells were treated with 75 nL DMSO for normalization and calculating EC50 values. Cells were incubated at 37° C. and 5% CO2 for 6 days. To image chondrogenic nodules, the cells were fixed using 4% formaldehyde (Electron Microscopy Sciences), and stained with 2 μg/mL Rhodamine B (Sigma-Aldrich) and 20 μM Nile Red (Sigma-Aldrich) [Johnson K., et. al, A Stem Cell-Based Approach to Cartilage Repair, Science, (2012), 336(6082), 717-721]. The nodules imaged (4 images per well at 4× magnification) by excitation at 531 nm and emission at 625 nm and quantified using the CellInsight CX5 (Thermo Scientific). Number of nodules in each well was normalized to the average of 3 DMSO treated wells on the same plate using Excel (Microsoft Inc.). The normalized averages (fold change over DMSO) of 3 replicate wells for each compound concentration were calculated. Due to solubility limitations of some of the compounds, curve fitting was incomplete leading to inaccurate EC50 determinations.
Using TGF-β3 as a positive control, the concentration of test compounds required to induce equivalent levels of chondrogenesis is reported. In addition, the maximum activity of each compound and the respective dose that each compound reached maximum chondrogenesis activity is reported.

For test [2], the system named is Wnt activity (Sp5-Luc reporter, SW480 colon carcinoma cells). Briefly: Sp5-Luc Wnt reporter gene screening assay in SW480 colon carcinoma cells. The following applies: Homo sapiens. (In general: In a reporter assay the amount or activity of a reporter protein is the signal.)
Protocol: The screening assay for Wnt activity is described as follows.
SW480 colon carcinoma cells were transduced with a lentiviral vector expressing luciferase with a human Sp5 promoter consisting of a sequence of eight TCF/LEF binding sites. SW480 cells stably expressing the Sp5-Luc reporter gene and a hygromycin resistance gene were selected by treatment with 150 μg/ml of hygromycin for 7 days. These stably transduced SW480 cells were expanded in cell culture and used for all further screening activities. For Sp5-Luc reporter gene assays, the cells were plated at 10,000 cells/well in 96-well plates with growth medium containing 10% fetal calf serum and incubated overnight at 37° C. and 5% CO2. […] Compound transfer from serially diluted source plates to assay plates containing the cells was accomplished using a pintool (Multimek 96, Beckman equipped with V&P Scientific FP1S50H pins) based liquid handling protocol. This protocol used a slotted pin to transfer 50 nl of compound from a source plate well to an assay plate well containing 50 μl of cells in growth medium. […] Control wells received 50 nl of DMSO treatment for normalization and calculating IC50 values. The treated cells were incubated at 37° C. and 5% CO2 for an additional forty-two hours. Following incubation, the growth medium was removed and 50 μl of BrightGlo luminescence reagent (Promega) was added to each well of the 96-well assay plates. The plates were placed on an orbital shaker for 5 min and then luminescence was quantified on the Victor3 (Perkin Elmer) plate reader.
The test system of test [3] is primary human fibroblasts derived from IPF patients (LL29 cells). Briefly: Inhibition of fibrosis (αSMA staining) in TGF-β1-treated primary human fibroblasts from IPF patients. The following applies: Fibroblast, 96 h, TGF-β1 20 ng/mL, 4 days. Format: cell-based. The method, boiled down: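 LL29 IPF fibroblasts in F12 with 1% FBS were stimulated with TGF-β1 (20 ng/mL) and incubated 4 days at 37 °C. SYTOX-positive dead cells were excluded, and αSMA-positive cells were counted by immunostaining as % of total. Values were normalized to TGF-β1/DMSO wells on the same plate, and EC50 derived.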

A word on the pIC50: it is −log10 of the IC50, conventionally taken in molar units. Read a low pIC50 as a high IC50. The pEC50 is the negative decadic logarithm of the EC50, by convention in mol/L. For `Cc1cn(-c2cccc3[nH]c(-c4n[nH]c5cnc(-c6cncc(NC(=O)CC(C)C)c6)cc45)nc23)cn1` [Compound 184, 3-Methyl-N-(5-(3-(4-(4-methyl-1H-imidazol-1-yl)-1H-benzo[d]imidazol-2-yl)-1H-pyrazolo[3,4-c]pyridin-5-yl)pyridin-3-yl)butanamide], the “Conc (nM) of Max. activity” value in test [1] worked out at 30 nM. In addition, the negative-log IC50 (pIC50) in test [2] was 7.26. This molecule gave a pEC50 in test [3] of 6.56.

For `O=C(Nc1cncc(-c2cc3c(-c4nc5c(-c6cccs6)cccc5[nH]4)n[nH]c3cn2)c1)C1CC1` [Compound 331, N-(5-(3-(4-(Thiophen-2-yl)-1H-benzo[d]imidazol-2-yl)-1H-pyrazolo[3,4-c]pyridin-5-yl)pyridin-3-yl)cyclopropanecarboxamide], the “Conc (nM) of Max. activity” value in test [1] amounted to 300 nM. In addition, the pIC50 in test [2] was 7.76. Also, in test [3], the pEC50 is 7.54.

For the molecule `CN(C)Cc1cncc(-c2cc3c(-c4nc5c(-c6cccc(F)c6)cccc5[nH]4)n[nH]c3cn2)c1` [Compound 13, 1-(5-(3-(4-(3-Fluorophenyl)-1H-benzo[d]imidazol-2-yl)-1H-pyrazolo[3,4-c]pyridin-5-yl)pyridin-3-yl)-N,N-dimethylmethanamine], the “Conc (nM) of Max. activity” value in test [1] was 300 nM. This molecule also showed a pIC50 in test [2] of 7.72. This molecule also had a pEC50 in test [3] of 8.05.

As for `c1cncc(-c2cc3c(-c4nc5ccccc5[nH]4)n[nH]c3cn2)c1` [Compound 238, 3-(1H-Benzo[d]imidazol-2-yl)-5-(pyridin-3-yl)-1H-pyrazolo[3,4-c]pyridine], the “Conc (nM) of Max. activity” value in test [1] worked out at 100 nM. The same molecule gave a pIC50 in test [2] of 8.11. This molecule also showed a pEC50 in test [3] of 7.24.

With `Nc1cncc(-c2cc3c(-c4nc5c(-c6ccccc6F)cccc5[nH]4)n[nH]c3cn2)c1` [Compound 55, 5-(3-(4-(2-Fluorophenyl)-1H-benzo[d]imidazol-2-yl)-1H-pyrazolo[3,4-c]pyridin-5-yl)pyridin-3-amine], in test [1], the “Conc (nM) of Max. activity” value was 900 nM. In test [2], this molecule gave a pIC50 of 7.71. In test [3], this molecule had a pEC50 of 8.05.

For `Cc1ccncc1-c1cc2c(-c3nc4c(-c5cc(F)cc(CNS(C)(=O)=O)c5)cccc4[nH]3)n[nH]c2cn1` [Compound 421, N-(3-Fluoro-5-(2-(5-(4-methylpyridin-3-yl)-1H-pyrazolo[3,4-c]pyridin-3-yl)-1H-benzo[d]imidazol-4-yl)benzyl)methanesulfonamide], the “Conc (nM) of Max. activity” value in test [1] amounted to 100 nM. The molecule also gave a negative logarithm of the IC50 (pIC50) in test [2] of 8.00. This molecule gave a pEC50 in test [3] of 8.05.

With `CC(C)C(=O)Nc1cncc(-c2cc3c(-c4nc5c(-c6ccsc6)cccc5[nH]4)n[nH]c3cn2)c1` [Compound 269, N-(5-(3-(4-(Thiophen-3-yl)-1H-benzo[d]imidazol-2-yl)-1H-pyrazolo[3,4-c]pyridin-5-yl)pyridin-3-yl)isobutyramide], the “Conc (nM) of Max. activity” value in test [1] is given as 900 nM. This molecule had a negative logarithm of the IC50 (pIC50) in test [2] of 8.38. Further, in test [3], the pEC50 was 7.31.

`CC(C)Nc1cncc(-c2cc3c(-c4nc5c(-c6cc(F)cc(NCCN(C)C)c6)cccc5[nH]4)n[nH]c3cn2)c1` [Compound 454, N^1-(3-Fluoro-5-(2-(5-(5-(isopropylamino)pyridin-3-yl)-1H-pyrazolo[3,4-c]pyridin-3-yl)-1H-benzo[d]imidazol-4-yl)phenyl)-N^2,N^2-dimethylethane-1,2-diamine]: the “Conc (nM) of Max. activity” value in test [1] was determined as 300 nM. Moreover, the negative logarithm of the IC50 (pIC50) in test [2] is 7.29. In addition, the pEC50 in test [3] was 6.93.

With `Cc1ccc(-c2cccc3[nH]c(-c4n[nH]c5cnc(-c6cncc(N)c6)cc45)nc23)s1` [Compound 367, 5-(3-(4-(5-Methylthiophen-2-yl)-1H-benzo[d]imidazol-2-yl)-1H-pyrazolo[3,4-c]pyridin-5-yl)pyridin-3-amine], the “Conc (nM) of Max. activity” value in test [1] turned out to be 30 nM. Further, the pIC50 in test [2] was 8.46. In test [3], the pEC50 was 8.05.

`CC(C)(C)C(=O)Nc1cncc(-c2cc3c(-c4nc5c(-c6ccc(F)cc6)cccc5[nH]4)n[nH]c3cn2)c1` [Compound 34, N-(5-(3-(4-(4-Fluorophenyl)-1H-benzo[d]imidazol-2-yl)-1H-pyrazolo[3,4-c]pyridin-5-yl)pyridin-3-yl)pivalamide]: the “Conc (nM) of Max. activity” value in test [1] is reported as 2700 nM. In addition, the pIC50 in test [2] was 7.51. This molecule also gave a pEC50 in test [3] of 7.33.

On to `c1cncc(-c2cc3c(-c4nc5c(-c6cccnc6)cccc5[nH]4)n[nH]c3cn2)c1` [Compound 82, 5-(Pyridin-3-yl)-3-(4-(pyridin-3-yl)-1H-benzo[d]imidazol-2-yl)-1H-pyrazolo[3,4-c]pyridine], for which the “Conc (nM) of Max. activity” value in test [1] is 30 nM. This molecule also showed a negative logarithm of the IC50 (pIC50) in test [2] of 8.35. The molecule also had a pEC50 in test [3] of 8.05.

On to `CN1CCN(c2cccc3[nH]c(-c4n[nH]c5cnc(-c6cncc(N)c6)cc45)nc23)CC1` [Compound 211, 5-(3-(4-(4-Methylpiperazin-1-yl)-1H-benzo[d]imidazol-2-yl)-1H-pyrazolo[3,4-c]pyridin-5-yl)pyridin-3-amine], for which, in test [1], the “Conc (nM) of Max. activity” value is on record as 2700 nM. For the same molecule, the negative logarithm of the IC50 (pIC50) in test [2] was 7.01. For the same molecule, the pEC50 in test [3] was 6.21.

Turning to `CCCC(=O)Nc1cncc(-c2cc3c(-c4nc5c(-c6cc(F)cc(CNS(C)(=O)=O)c6)cccc5[nH]4)n[nH]c3cn2)c1` [Compound 433, N-(5-(3-(4-(3-Fluoro-5-(methylsulfonamidomethyl)phenyl)-1H-benzo[d]imidazol-2-yl)-1H-pyrazolo[3,4-c]pyridin-5-yl)pyridin-3-yl)butyramide], the negative-log IC50 (pIC50) in test [2] was 7.55. In test [3], this molecule had a pEC50 of 8.05.

The molecule `CN(C)CCNc1cc(F)cc(-c2cccc3[nH]c(-c4n[nH]c5cnc(-c6cncc(NC(=O)C(C)(C)C)c6)cc45)nc23)c1` [Compound 450, N-(5-(3-(4-(3-((2-(Dimethylamino)ethyl)amino)-5-fluorophenyl)-1H-benzo[d]imidazol-2-yl)-1H-pyrazolo[3,4-c]pyridin-5-yl)pyridin-3-yl)pivalamide] showed a pIC50 in test [2] of 6.80. Further, the pEC50 in test [3] was 7.07.

Molecule `CCNCc1cncc(-c2cc3c(-c4nc5c(-c6ccccn6)cccc5[nH]4)n[nH]c3cn2)c1` [Compound 136, N-((5-(3-(4-(Pyridin-2-yl)-1H-benzo[d]imidazol-2-yl)-1H-pyrazolo[3,4-c]pyridin-5-yl)pyridin-3-yl)methyl)ethanamine] showed a pIC50 in test [2] of 6.75. The molecule also showed a pEC50 in test [3] of 6.91.

In turn, `CN(C)CCOc1cncc(-c2cc3c(-c4nc5c(-c6cccc(F)c6)cccc5[nH]4)n[nH]c3cn2)c1` [Compound 947, 2-((5-(3-(4-(3-Fluorophenyl)-1H-benzo[d]imidazol-2-yl)-1H-pyrazolo[3,4-c]pyridin-5-yl)pyridin-3-yl)oxy)-N,N-dimethylethan-1-amine] showed a negative-log IC50 (pIC50) in test [2] of 6.33. In test [3], this molecule gave a negative logarithm of the EC50 (pEC50) of 5.00.

With `CC(C)CC(=O)Nc1cncc(-c2cc3c(-c4nc5c(-c6ccc(F)cc6)cccc5[nH]4)n[nH]c3cn2)c1` [Compound 28, N-(5-(3-(4-(4-Fluorophenyl)-1H-benzo[d]imidazol-2-yl)-1H-pyrazolo[3,4-c]pyridin-5-yl)pyridin-3-yl)-3-methylbutanamide], the pIC50 in test [2] is 7.04. This molecule also showed a pEC50 in test [3] of 6.13.

On to `Cc1ccncc1-c1cc2c(-c3nc4c(-c5ccsc5)cccc4[nH]3)n[nH]c2cn1` [Compound 265, 5-(4-Methylpyridin-3-yl)-3-(4-(thiophen-3-yl)-1H-benzo[d]imidazol-2-yl)-1H-pyrazolo[3,4-c]pyridine], for which the negative logarithm of the IC50 (pIC50) in test [2] was 7.71. For the same molecule, the pEC50 in test [3] was 8.05.

Consider `CCNCc1cncc(-c2cc3c(-c4nc5c(-c6cc(F)cc(NCCN(C)C)c6)cccc5[nH]4)n[nH]c3cn2)c1` [Compound 448, N^1-(3-(2-(5-(5-((Ethylamino)methyl)pyridin-3-yl)-1H-pyrazolo[3,4-c]pyridin-3-yl)-1H-benzo[d]imidazol-4-yl)-5-fluorophenyl)-N^2,N^2-dimethylethane-1,2-diamine], for which, in test [2], the negative-log IC50 (pIC50) was 6.17. Further, the negative-log EC50 (pEC50) in test [3] is 8.05.

As for `CC(C)(C)CC(=O)Nc1cncc(-c2cc3c(-c4nc5c(-c6ccccc6F)cccc5[nH]4)n[nH]c3cn2)c1` [Compound 68, N-(5-(3-(4-(2-Fluorophenyl)-1H-benzo[d]imidazol-2-yl)-1H-pyrazolo[3,4-c]pyridin-5-yl)pyridin-3-yl)-3,3-dimethylbutanamide], the negative-log IC50 (pIC50) in test [2] was 6.78. In addition, the pEC50 in test [3] is 5.78.
